The nature of series [1]: Stability of NRH or NR spiked in isolated mouse plasma. It is filed as in vitro ADME. The settings on record: for levels of spiked compound in plasma: isolated mouse plasma, 2 h of incubation. An excerpt: (§1) Levels of NRH and other NAD-related metabolites in biological samples were obtained by using a cold liquid-liquid extraction using a mixture of methanol:water:chloroform in 5:3:5 (v/v), from which the polar phase was recovered for hydrophilic interaction ultra-high performance liquid chromatography mass spectrometry (UHPLC-MS) analysis. The UHPLC consisted of a binary pump, a cooled autosampler, and a column oven (DIONEX Ultimate 3000 UHPLC+ Focused, Thermo Scientific), connected to a triple quadrupole spectrometer (TSQ Vantage, Thermo Scientific) equipped with a heated electrospray ionisation (H-ESI) source. Of each sample, 2 µL were injected into the analytical column (2.1 mm × 150 mm, 5 µm pore size, 200 Å HILICON iHILIC®-Fusion(P)), guarded by a pre-column (2.1 mm × 20 mm, 200 Å HILICON iHILIC®-Fusion(P) Guard Kit) operating at 35° C. The mobile phase (10 mM ammonium acetate at pH 9, A, and acetonitrile, B) was pumped at 0.25 mL/min flow rate over a linear gradient of decreasing organic solvent (0.5-16 min, 90-25% B), followed by re-equilibration for a total run time of 30 min. The MS operated in positive mode at 3500 V with multiple reaction monitoring (MRM). The software Xcalibur v4.1.31.9 (Thermo Scientific) was used for instrument control, data acquisition and processing. Retention time and mass detection was confirmed by authentic standards.
(§2) NR degradation to NAM has been proposed as a limitation for its pharmacological efficacy. To evaluate whether NRH was also susceptible to degradation to NAM, we spiked NRH or NR in isolated mouse plasma. […] We also tested the stability of NRH in other matrixes. […] Finally, we also certified NRH stability in water (pH=7, at room temperature) for 48 h.

Series [2] in a line: Stability in FBS supplemented media. In kind it is in vitro ADME. As to the method:
as §2

For series [3], the system named is NAD+ levels. The series can be described thus: Tissue NAD+ levels after IP injection in mice. It is filed as in vivo. The settings on record: IP 500 mg/kg, after 1 h.
Excerpt: as §1
The above results prompted us to test whether NRH could act as an effective NAD+ precursor in vivo. For this, we first intraperitoneally (IP) injected mice with either NR or NRH (500 mg/kg). […] Importantly, NRH was detectable in circulation after IP injection.

Series [4] can be described thus: Circulating NRH, NR and NAM after IP injection in mice. It is filed as in vivo.
Excerpt: as §1, with “standards. […]” for “standards.”

The nature of series [5]: Plasma NRH, NR and NAM after oral administration in mice. In kind it is in vivo.
Excerpt: as §1
Oral administration of NRH led to very similar results to those observed after IP administration. […] NRH was detectable in plasma 1 h after oral administration. In contrast, NR levels were undetectable at 1 h after NR administration.

A short description of the next series: Stability in water. In kind it is physicochemical. Particulars: pH=7, room temperature, 48 h. As to the method:
as §2

Series [6] concerns NAD+ levels. The series can be described thus: Hepatic NAD+ levels after oral administration in mice. It is filed as in vivo. Particulars: oral administration (FIG. 2: 500 mg/kg, 1 hour). On the procedure: 8 week-old C57BI/6NTac mice were orally gavaged with either saline (as vehicle), NR (500 mg/kg) or NRH (500 mg/kg). After 1 hour, liver, skeletal muscle and kidney NAD^+ levels were evaluated. All results are expressed as mean +/-SEM of n=5 mice per group. * indicates statistical difference at p<0.05 vs. vs. saline-treated mice. # indicates statistical difference at p<0.05 vs. NR treated mice.
(§3) Levels of NRH and other NAD-related metabolites in biological samples were obtained by using a cold liquid-liquid extraction using a mixture of methanol:water:chloroform in 5:3:5 (v/v), from which the polar phase was recovered for hydrophilic interaction ultra-high performance liquid chromatography mass spectrometry (UHPLC-MS) analysis. The UHPLC consisted of a binary pump, a cooled autosampler, and a column oven (DIONEX Ultimate 3000 UHPLC+ Focused, Thermo Scientific), connected to a triple quadrupole spectrometer (TSQ Vantage, Thermo Scientific) equipped with a heated electrospray ionisation (H-ESI) source. Of each sample, 2 µL were injected into the analytical column (2.1 mm × 150 mm, 5 µm pore size, 200 Å HILICON iHILIC®-Fusion(P)), guarded by a pre-column (2.1 mm × 20 mm, 200 Å HILICON iHILIC®-Fusion(P) Guard Kit) operating at 35° C. […]

Series [7] can be described thus: NRH levels in liver, kidney and muscle after oral gavage. The settings on record: mice, oral gavage 250 mg/kg, 2 hours. It is filed as in vivo. On the procedure: 8 week-old C57BI/6NTac mice were orally gavaged with either saline (as vehicle), and NRH (250 mg/kg). After 2 hours, liver, skeletal muscle and kidney NRH levels were evaluated. All results are expressed as mean +/-SEM of n=4 mice per group, as areas under the signal by LC-MS analysis, corrected by total protein amount of tissue.
as §1

Series [8] in a line: NRH levels in lung after oral gavage. It is filed as in vivo. Particulars: mice, oral gavage of stable isotope-labelled NRH 250 mg/kg, 2 hours. On the procedure: 8 week-old C57BI/6NTac mice were orally gavaged with either saline (as vehicle), and an stable isotope-labelled NRH (250 mg/kg). After 2 hours, NRH levels in the lung were evaluated. All results are expressed as mean +/-SE of n=4 mice per group, as areas under the signal by LC-MS analysis, corrected by total protein amount of tissue.
as §3, with “source.” for “source. Of each sample, 2 µL were injected into the analytical column (2.1 mm × 150 mm, 5 µm pore size, 200 Å HILICON iHILIC®-Fusion(P)), guarded by a pre-column (2.1 mm × 20 mm, 200 Å HILICON iHILIC®-Fusion(P) Guard Kit) operating at 35° C.”
8 week-old C57BI/6NTac mice were orally gavaged with either saline (as vehicle), and an stable isotope-labelled NRH (250 mg/kg). After 2 hours, NRH levels in the lung were evaluated. All results are expressed as mean +/-SE of n=4 mice per group, as areas under the signal by LC-MS analysis, corrected by total protein amount of tissue (FIG. 4).

In series [9] the test system is Salmonella enterica serovar Typhimurium. The series can be described thus: Anti-bacterial response of monocyte-derived macrophages against Salmonella (CFU counts). Particulars: 0.01 mM for 42 h prior to infection, MOI 10, 1 h; gentamicin 2 h. It is filed as cell-based. On the procedure: Monocyte-derived macrophages were treated with 0.01 mM NRH for 42 h prior to infection with Salmonella enterica serovar Typhimurium for 1 h using a multiplicity of infection of 10. Following infection, macrophages were treated with gentamicin for 2 h before cell lysis. Values show absolute colony forming unit (CFU) counts with each dot representing one donor and each line representing paired samples. Graphs show pooled data of 2 independent experiments with 2-3 donors/experiment.
Monocyte-derived macrophages were treated with 0.01 mM NRH for 42 h prior to infection with Salmonella enterica serovar Typhimurium for 1 h using a multiplicity of infection of 10. Following infection, macrophages were treated with gentamicin for 2 h before cell lysis. Values show absolute colony forming unit (CFU) counts with each dot representing one donor and each line representing paired samples. Graphs show pooled data of 2 independent experiments with 2-3 donors/experiment. (FIG. 5).

The subject of another series is RAW 264.7 macrophages. Description: Intracellular NAD+ in cultured RAW 264.7 macrophages. In kind it is cell-based. Particulars: 1 hour. On the procedure:
RAW 264.7 macrophages were treated with dihydronicotinamide riboside (NRH) at the concentrations indicated. […] Control (0 mM) group. RAW 264.7 macrophages were treated with dihydronicotinamide riboside (NRH) at the concentrations indicated.

The subject of series [10] is Mouse bone marrow derived macrophages. Description: Intracellular NAD+ in cultured bone marrow derived macrophages. It is filed as cell-based. Particulars: 1 or 2 hours. As to the method:
Mouse bone marrow derived macrophages were treated with dihydronicotinamide riboside (NRH) at the concentrations indicated, using PBS as control. […] Control group. Mouse bone marrow derived macrophages were treated with dihydronicotinamide riboside (NRH) at the concentrations indicated, using PBS as control.

For another series, the system named is Splenocytes. Description: Intracellular NAD+ in splenocytes. In kind it is cell-based. Particulars: splenocytes from 1 year old mice, 2 hours. On the procedure: Then, 2 hours later, intracellular NAD+ levels were measured. * indicates p<0.05 vs. Control (0 mM) group. […] Then, 2 hours later, intracellular NAD+ levels were measured as described above.

The structures appear in SMILES notation. Where a name gives a salt, the structure may show the parent alone.

Regarding `NC(=O)c1ccc[n+]([C@@H]2O[C@H](CO)[C@@H](O)[C@H]2O)c1` [NR, 1-b-D-ribofuranosyl-3-pyridinecarboxamide salt, reference compound], in [1], the “levels of spiked compound in plasma” value was “decayed”. The “degradation to NAM in FBS supplemented media” value in [2] is “occurs”. Besides, in the series on NAD+ levels [3], the “NAD+ levels in kidney” value is given as “increased”, the “NAD+ levels in liver” value is given as “increased” and the “NAD+ levels in muscle” value was “increased”. Further, the “NAM levels in circulation” value in [4] (IP 500 mg/kg) was “highly increased”. For the same compound, in series [5] (C57BL/6NTac, mouse, in vivo, po, 1 h), the “circulating NAM relative to that after NRH treatment” value is ~ 4 fold. In addition, the “circulating NAM” value in series [5] (mouse, in vivo, po) is “large increases”.

In the case of `NC(=O)C1=CN([C@@H]2O[C@H](CO)[C@@H](O)[C@H]2O)C=CC1` [NRH, dihydronicotinamide riboside], the “levels of spiked compound in plasma” value in series [1] was “remained stable”. Also, the “NR production on incubation in isolated plasma” value in series [1] (isolated plasma) is on record as “did not lead to NR production”. The “degradation to NAM in FBS supplemented media” value in [2] is “did not degrade to NAM”. Besides, the stability in water entry in “Stability in water” is “stability”. Moreover, in the series with NAD+ levels [3], the “NAD+ levels in kidney” value is “increased”, the “NAD+ levels in liver” value was “increased” and the “NAD+ levels in muscle” value is on record as “increased”. Also, the NR in circulation result in series [4] (after IP treatment, compared with NR injection) is on record as “much higher levels than those detected after NR injection itself”. The “effect on hepatic NAD+ levels” value with NAD+ levels [6] is “more potent effect on hepatic NAD+ levels than NR”. Besides, the NRH in plasma result in series [5] (mice, 1 h after oral administration) was “detectable”. Besides, the “NRH concentration in plasma” value in [5] (mice, after oral gavage) came out at 11.16 ± 1.74 µM. Further, in [7], the NRH in kidney entry is “found intact, in high levels”; the NRH in liver entry is recorded as “found intact, in high levels”; the NRH in muscle result is “found intact, in high levels”. Besides, the NRH in lung result in series [8] is recorded as “efficient biodistribution in the lung”. Moreover, in series [9], the “anti-bacterial macrophage response against salmonella” value is “able to augment anti-bacterial macrophage response”. In addition, the “intracellular NAD+ levels” value with RAW 264.7 macrophages is given as “increases NAD+”. Also, in [10], the “intracellular NAD+ levels” value is listed as “increases NAD+”. Besides, the “intracellular NAD+ levels” value in the series with Splenocytes is on record as “increases NAD+”.

These data come from patent US20230133114A1, “COMPOSITIONS AND METHODS CONTAINING REDUCED NICOTINAMIDE RIBOSIDE FOR PREVENTION AND TREATMENT OF VIRAL AND BACTERIAL INFECTIONS” (SOCIETE DES PRODUITS NESTLE S.A., priority 2020, published 2023).
